Source: PMC6407594 (Journal of Enzyme Inhibition and Medicinal Chemistry, 2019)
Where two headings read alike, the source gives them in different places.

What was measured:
[1] = biological target: T1, murine SMOX (Mus musculus, UniProt Q99K82); assay: Inhibition of SMOX activity, spermine as substrate; type: biochemical; details: for SMOX Kmapp/Km0: 50 μM compound, relative to control
[2] = biological target: murine PAOX (Mus musculus, UniProt Q8C0L6); assay: Inhibition of PAOX activity, N1AcSPM as substrate; type: biochemical; details: for PAOX Kmapp/Km0: 50 μM compound, relative to control; for PAOX Kmapp: Km of N1AcSPM in the presence of 50 μM compound
[3] = biological target: PAOX activity in HT22 cells (Mus musculus, UniProt Q8C0L6); assay: PAOX activity in whole HT22 cells; type: cell-based
[4] = cited from earlier work
[5] = test system: ODC; details: at a concentration of 10 μM; cited from earlier work
[6] = test system: SSAT; details: at a concentration of 10 μM; cited from earlier work
[7] = biological target: T1, murine SMOX; details: read-out: SMOX Ki; purified murine SMOX; cited from earlier work
[8] = test system: human MAO A; details: cited from earlier work
[9] = test system: MAOs; assay: Amine oxidase activity in HT22 cell lysate, tyramine as substrate; type: biochemical, mouse; details: tyramine 1 mM, after pre-incubation with inhibitor
[10] = Km of SPM in the presence of 50 μM compound

T1 sequence (Q99K82 whole entry): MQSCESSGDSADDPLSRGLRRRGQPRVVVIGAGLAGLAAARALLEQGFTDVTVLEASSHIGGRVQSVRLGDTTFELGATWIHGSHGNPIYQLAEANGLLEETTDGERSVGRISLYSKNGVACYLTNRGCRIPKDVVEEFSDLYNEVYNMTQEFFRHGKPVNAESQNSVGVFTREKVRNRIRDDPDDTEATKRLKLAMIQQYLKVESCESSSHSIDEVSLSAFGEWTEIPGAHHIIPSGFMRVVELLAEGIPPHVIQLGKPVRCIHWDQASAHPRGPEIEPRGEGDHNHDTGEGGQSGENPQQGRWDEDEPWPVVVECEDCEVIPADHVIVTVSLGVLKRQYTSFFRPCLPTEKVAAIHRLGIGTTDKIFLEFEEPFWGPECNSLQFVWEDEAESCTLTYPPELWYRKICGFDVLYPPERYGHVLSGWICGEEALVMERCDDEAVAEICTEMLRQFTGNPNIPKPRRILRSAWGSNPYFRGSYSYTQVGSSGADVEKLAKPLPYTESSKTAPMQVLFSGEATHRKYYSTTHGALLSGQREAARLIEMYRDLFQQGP
Chain of murine PAOX (Q8C0L6 whole entry): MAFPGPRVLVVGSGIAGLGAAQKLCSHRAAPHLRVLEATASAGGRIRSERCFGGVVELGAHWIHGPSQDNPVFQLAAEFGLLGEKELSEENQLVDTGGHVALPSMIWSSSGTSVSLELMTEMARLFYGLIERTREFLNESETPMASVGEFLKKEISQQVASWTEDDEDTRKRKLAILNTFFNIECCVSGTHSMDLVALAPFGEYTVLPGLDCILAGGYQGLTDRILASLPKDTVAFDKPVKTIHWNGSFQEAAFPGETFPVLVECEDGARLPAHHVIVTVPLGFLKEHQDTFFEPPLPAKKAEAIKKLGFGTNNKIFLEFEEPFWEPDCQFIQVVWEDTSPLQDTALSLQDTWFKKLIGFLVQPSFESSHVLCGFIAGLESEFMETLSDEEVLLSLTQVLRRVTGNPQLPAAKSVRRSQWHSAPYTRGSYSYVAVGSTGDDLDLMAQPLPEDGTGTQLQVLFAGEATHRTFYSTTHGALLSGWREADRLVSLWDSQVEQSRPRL
Chain of PAOX activity in HT22 cells (Q8C0L6 whole entry): as above

Ki [1] [µM] | SMOX Kmapp/Km0 [1] | SMOX Kmapp [1, 10] [µM] | PAOX Kmapp/Km0 [2] | PAOX Kmapp [2] [µM] | SMILES | other results
 | 2.3 | 1135 ± 141 | 108 | 41 ± 221 | c1ccc(CNCCCCCCCCCCCCNCc2ccccc2)cc1 [Compound 9, N1,N^12-dibenzyldodecanediamine] | 
1.2 ± 0.1 | 18 | 8940 ± 1600 |  |  | COc1ccccc1CNCCCCCCNCCCCCCCCNCCCCCCNCc1ccccc1OC [Compound 10, Methoctramine] | Mode of inhibition of SMOX ([1]; double reciprocal plots): competitive inhibitors; Ki [2]: 0.01 ± 0.0015 µM; Mode of inhibition of PAOX ([2]; double reciprocal plots): competitive inhibitors; IC50 [3]: 0.16 ± 0.01 µM; IC50 in HT22 cells relative to Ki of recombinant enzyme ([3]; IC50/Ki): about 16 times; Cytotoxicity [4]: low cytotoxicity; Effect on ODC [5]: did not significantly affect; Effect on SSAT [6]: did not significantly affect
 | 1.21 | 598 ± 156 | 112 | 43 ± 9 | COc1ccccc1CN(C)CCCCCC(=O)N(C)CCCCCCCCN(C)C(=O)CCCCCN(C)Cc1ccccc1OC [Compound 14, Caproctamine] | 

The next lines start with the compound.

SMILES | Ki [1] [µM] | SMOX Kmapp/Km0 [1] | SMOX Kmapp [1, 10] [µM] | PAOX Kmapp/Km0 [2] | PAOX Kmapp [2] [µM] | other results
[H]/N=C(\N/C(=N/[H])NCCCCCCNC(=N)NC(=N)Nc1ccc(Cl)cc1)Nc1ccc(Cl)cc1 [Chlorhexidine, chlorhexidine, reference compound] | 3.8 ± 0.2 |  |  |  |  | SMOX Kmapp [1]: 1402 ± 124 µM
NCCCCCCCCCCCCN [DIADO, 1,12-diaminododecane, reference compound] |  | 1.2 | 600 ± 100 | 9 | 3.40 ± 0.26 | Ki [7]: > 1000 µM; Behaviour towards MAO A [8]: excellent substrate
C#CCN(C)Cc1ccccc1 [pargyline] |  |  |  |  |  | Activity with tyramine with respect to control sample [9]: 2%
